In US9994587B2, “HIV protease inhibitors” (priority 2014, dated 2018):

Tests used:
[1] = system: HIV-1 (NL4-3 strain); assay: Viral Kinetics GFP Reporter (ViKinG) assay; format: cell-based; conditions: Human immunodeficiency virus 1, NL43; 50% NHS; MT4-GFP cells infected with HIV-1 NL4-3; mean of at least two independent experiments
Source text: Viral Kinetics GFP Reporter (ViKinG) Assay
The ViKinG assay is an in vitro kinetic assay that employs the MT4-gag-GFP reporter cell line (Wang et al., “Assessment of the susceptibility of mutant HIV-1 to antiviral agents.” J Virological Methods 165:230-37 (2010)) to quantify the number of new cells infected in each round of replication. The purpose of the ViKinG assay is to identify agents that inhibit HIV progression. Briefly, HIV infection results in tat transactivation of the stably expressed HIV LTR promoter to drive gagGFP expression. Thus, an increase in the number of GFP-MT4 cells results following HIV infection.
MT4-GFP cells (250,000 cells/ml) were bulk-infected with HIV-1 (NL4-3 strain) at low multiplicity of infection (MOI) in RPMI+10% FBS for 24 hours. Cells were then washed once in RPMI+10% FBS and resuspended RPMI+10% or 50% normal human serum (NHS). Test compounds were serial-diluted in DMSO on an ECHO® liquid handling platform (Labcyte Corp., Sunnyvale, Calif.), along with a triple drug control (integrase, protease and NNRTI compounds). The infected MT4-GFP cells were added to a 384-well poly-D-lysine coated black plate with clear bottom in which the diluted test compounds were placed. The cells were seeded at 8,000 cells per well and the final DMSO concentration was 0.4%. The infected cells (Green GFP cells) were quantified at both 24 and 48 hours post incubation using Acumen® eX3 (TTP Labtech Ltd., Hertfordshire, United Kingdom). Viral reproductive ratio (R0) was determined using the number of infected cells at 48 hours divided by the number of infected cells at 24 hours. Percent viral growth inhibition was calculated by [1−(R−Rtripledrug)/(RDMSO−Rtripledrug)]*100. Compound potency IP or IC50 was determined by a 4-parameter dose response curve analysis.

[2] = biological target: T1, wildtype HIV-1 protease (Human immunodeficiency virus type 1 group M subtype B, UniProt P04585); assay: Assay for inhibition of microbial expressed HIV protease (Pepcleav); format: biochemical; conditions: wild type HIV-1 protease 20 pM, peptide substrate 400 micromolar, pH 5.5; mean of at least two independent experiments
T1 construct: preincubated with the HIV-1 protease (wild type) enzyme in assay buffer; made in house; host or cells: Escherichia coli
Method in brief: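 E. coli-expressed enzyme preincubated with inhibitor 30 min at room temperature in 50 mM sodium acetate pH 5.5, 100 mM NaCl, 0.1% BSA, then 400 micromolar peptide substrate added with 20 picomolar protease (final), 1 h at 30° C. Product quantified by LC-MS/MS peak area after formic acid/indinavir quench.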

| Structure (SMILES) | IC50 [1] [nM] | IC50 [2] [nM] |
| --- | --- | --- |
| COC(=O)N[C@H](C(=O)Nc1cccc(F)c1CC[C@@H]1CNCC2(CCCC(=O)C2)O1)[C@@H](c1ccc(F)cc1)c1cc(F)cc(F)c1 (stereo partly drawn) [Example 92, Methyl ((1S,2S)-1-(3,5-difluorophenyl)-3-((3-fluoro-2-(2-((2R)-8-oxo-1-oxa-4-azaspiro[5.5]undecan-2-yl)ethyl)phenyl)amino)-1-(4-fluorophenyl)-3-oxopropan-2-yl)carbamate] | 35 |  |
| CC(=O)N1CCC2(CC1)CNC[C@@H](CCc1c(F)cccc1NC(=O)[C@@H](N)[C@@H](c1ccc(Cl)cc1)c1cc(F)cc(F)c1)O2 [Example 95, (2S,3S)—N-(2-(2-((R)-9-Acetyl-1-oxa-4,9-diazaspiro[5.5]undecan-2-yl)ethyl)-3-fluorophenyl)-2-amino-3-(4-chlorophenyl)-3-(3,5-difluorophenyl)propanamide] | 150 |  |
| N[C@H](C(=O)Nc1cccc(F)c1CC[C@@H]1CNCC2(CCOCC2)O1)[C@@H](c1ccc(Cl)cc1)c1cc(F)cc(F)c1 [Example 96, (βS)-4-chloro-β-(3,5-difluorophenyl)-N-(2-{2-[(2R)-1,9-dioxa-4-azaspiro[5.5]undec-2-yl]ethyl}-3-fluorophenyl)-L-phenylalaninamide] | 80 |  |
| COC(=O)N[C@H](C(=O)Nc1cccc(F)c1CC[C@@H]1CNCC2(CCOCC2)O1)[C@@H](c1ccc(Cl)cc1)c1cc(F)cc(F)c1 [Example 97, methyl {(1S,2S)-2-(4-chlorophenyl)-2-(3,5-difluorophenyl)-1-[(2-{2-[(2R)-1,9-dioxa-4-azaspiro[5.5]undec-2-yl]ethyl}-3-fluorophenyl)carbamoyl]ethyl}carbamate] | 55 |  |
| COC(=O)N[C@H](C(=O)Nc1cncc(F)c1CC[C@@H]1CNCC2(CCCC2)O1)C(c1ccc(F)cc1)c1ccc(F)cc1 [Example 100, methyl {(1S)-1-[bis(4-fluorophenyl)methyl]-2-[(5-fluoro-4-{2-[(7R)-6-oxa-9-azaspiro[4.5]dec-7-yl]ethyl}pyridin-3-yl)amino]-2-oxoethyl}carbamate] | 71 |  |
| N[C@H](C(=O)Nc1cncc(F)c1CC[C@@H]1CNCC2(CCOCC2)O1)C(c1ccc(F)cc1)c1ccc(F)cc1 [Example 101, N-(4-{2-[(2R)-1,9-dioxa-4-azaspiro[5.5]undec-2-yl]ethyl}-5-fluoropyridin-3-yl)-4-fluoro-β-(4-fluorophenyl)-L-phenylalaninamide] | 110 |  |
| N[C@H](C(=O)Nc1cncc(F)c1CC[C@@H]1CNCC2(CCCCC2)O1)C(c1ccccc1)c1ccccc1 [Example 133, N-(5-fluoro-4-{2-[(2R)-1-oxa-4-azaspiro[5.5]undec-2-yl]ethyl}pyridin-3-yl)-β-phenyl-L-phenylalaninamide] |  | 290 |
| N[C@H](C(=O)Nc1cncc(F)c1CC[C@@H]1CNCC2(CCCC2)O1)C(c1ccc(F)cc1)c1ccc(F)cc1 [Example 150, 4-fluoro-N-(5-fluoro-4-{2-[(7R)-6-oxa-9-azaspiro[4.5]dec-7-yl]ethyl}pyridin-3-yl)-β-(4-fluorophenyl)-L-phenylalaninamide] | 270 |  |
| COC(=O)N[C@H](C(=O)Nc1cccc(F)c1CC[C@@H]1CNCC2(CCN(C(C)=O)CC2)O1)[C@@H](c1ccc(Cl)cc1)c1cc(F)cc(F)c1 [Example 151, methyl{(1S)-2-[(2-{2-[(2R)-9-acetyl-1-oxa-4,9-diazaspiro[5.5]undec-2-yl]ethyl}-3-fluorophenyl)amino]-1-[(S)-(4-chlorophenyl)(3,5-difluorophenyl)methyl]-2-oxoethyl}carbamate] | 170 |  |
| CC(=O)N1CCC2(CC1)CNC[C@@H](CCc1c(F)cncc1NC(=O)[C@@H](N)[C@@H](c1ccc(Cl)cc1)c1cc(F)cc(F)c1)O2 [Example 152, (βS)-N-(4-{2-[(2R)-9-acetyl-1-oxa-4,9-diazaspiro[5.5]undec-2-yl]ethyl}-5-fluoropyridin-3-yl)-4-chloro-β-(3,5-difluorophenyl)-L-phenylalaninamide] | 320 |  |
| COC(=O)N[C@H](C(=O)Nc1cncc(F)c1CC[C@@H]1CNCC2(CCN(C(C)=O)CC2)O1)[C@@H](c1ccc(Cl)cc1)c1cc(F)cc(F)c1 [Example 153, methyl{(1S)-2-[(4-{2-[(2R)-9-acetyl-1-oxa-4,9-diazaspiro[5.5]undec-2-yl]ethyl}-5-fluoropyridin-3-yl)amino]-1-[(S)-(4-chlorophenyl)(3,5-difluorophenyl)methyl]-2-oxoethyl}carbamate] | 310 |  |
| CS(=O)(=O)N1CCC2(CC1)CNC[C@@H](CCc1c(F)cncc1NC(=O)[C@@H](N)[C@@H](c1ccc(Cl)cc1)c1cccc(OC(F)(F)F)c1)O2 [Example 154, (βS)-β-(4-chlorophenyl)-N-(5-fluoro-4-{2-[(2R)-9-(methylsulfonyl)-1-oxa-4,9-diazaspiro[5.5]undec-2-yl]ethyl}pyridin-3-yl)-3-(trifluoromethoxy)-L-phenylalaninamide] | 300 |  |
| N[C@H](C(=O)Nc1cncc(F)c1CC[C@@H]1CNCC2(CCOCC2)O1)[C@@H](c1ccc(Cl)cc1)c1cc(F)cc(F)c1 [Example 155, (βS)-4-chloro-β-(3,5-difluorophenyl)-N-(4-{2-[(2R)-1,9-dioxa-4-azaspiro[5.5]undec-2-yl]ethyl}-5-fluoropyridin-3-yl)-L-phenylalaninamide] | 140 |  |
| N[C@H](C(=O)Nc1cncc(F)c1CC[C@@H]1CNCC2(CCOCC2)O1)[C@@H](c1ccc(Cl)cc1)c1cccc(OC(F)(F)F)c1 [Example 156, (βS)-4-chloro-N-(4-{2-[(2R)-1,9-dioxa-4-azaspiro[5.5]undec-2-yl]ethyl}-5-fluoropyridin-3-yl)-β-[3-(trifluoromethoxy)phenyl]-L-phenylalaninamide] | 480 |  |
| COC(=O)N[C@H](C(=O)Nc1cncc(F)c1CC[C@@H]1CNCC2(CCOCC2)O1)[C@@H](c1ccc(Cl)cc1)c1cccc(OC(F)(F)F)c1 [Example 157, methyl{(1S,2S)-2-(4-chlorophenyl)-1-[(4-{2-[(2R)-1,9-dioxa-4-azaspiro[5.5]undec-2-yl]ethyl}-5-fluoropyridin-3-yl)carbamoyl]-2-[3-(trifluoromethoxy)phenyl]ethyl}carbamate] | 210 |  |
| N[C@H](C(=O)Nc1cncc(F)c1CC[C@@H]1CNCC2(CCOCC2)O1)[C@@H](c1ccc(Cl)cc1)C1CCOCC1 [Example 158, (βR)-4-chloro-N-(4-{2-[(2R)-1,9-dioxa-4-azaspiro[5.5]undec-2-yl]ethyl}-5-fluoropyridin-3-yl)-β-(tetrahydro-2H-pyran-4-yl)-L-phenylalaninamide] | 390 |  |
| N[C@H](C(=O)Nc1cccc(F)c1CC[C@@H]1CNCC2(CCOCC2)O1)[C@@H](c1ccc(Cl)cc1)C1CCOCC1 [Example 159, (βR)-4-chloro-N-(2-{2-[(2R)-1,9-dioxa-4-azaspiro[5.5]undec-2-yl]ethyl}-3-fluorophenyl)-β-(tetrahydro-2H-pyran-4-yl)-L-phenylalaninamide] | 490 |  |
| COC(=O)N[C@H](C(=O)Nc1cncc(F)c1CC[C@@H]1CNCC2(CCOCC2)O1)[C@@H](c1ccc(Cl)cc1)C1CCOCC1 [Example 160, methyl[(1S,2R)-2-(4-chlorophenyl)-1-[(4-{2-[(2R)-1,9-dioxa-4-azaspiro[5.5]undec-2-yl]ethyl}-5-fluoropyridin-3-yl)carbamoyl]-2-(tetrahydro-2H-pyran-4-yl)ethyl]carbamate] | 350 |  |
| COC(=O)N[C@H](C(=O)Nc1cccc(F)c1CC[C@@H]1CNCC2(CCOCC2)O1)[C@@H](c1ccc(Cl)cc1)C1CCOCC1 [Example 161, methyl[(1S,2R)-2-(4-chlorophenyl)-1-[(2-{2-[(2R)-1,9-dioxa-4-azaspiro[5.5]undec-2-yl]ethyl}-3-fluorophenyl)carbamoyl]-2-(tetrahydro-2H-pyran-4-yl)ethyl]carbamate] | 130 |  |
| N[C@H](C(=O)Nc1cccc(F)c1CC[C@@H]1CNCC2(CCOC2)O1)[C@@H](c1ccc(Cl)cc1)c1cc(F)cc(F)c1 (stereo partly drawn) [Example 162, (βS)-4-chloro-β-(3,5-difluorophenyl)-N-(2-{2-[(7R)-2,6-dioxa-9-azaspiro[4.5]dec-7-yl]ethyl}-3-fluorophenyl)-L-phenylalaninamide] | 180 |  |
| COC(=O)N[C@H](C(=O)Nc1cccc(F)c1CC[C@@H]1CNCC2(CCOC2)O1)[C@@H](c1ccc(Cl)cc1)c1cc(F)cc(F)c1 (stereo partly drawn) [Example 163, methyl{(1S,2S)-2-(4-chlorophenyl)-2-(3,5-difluorophenyl)-1-[(2-{2-[(7R)-2,6-dioxa-9-azaspiro[4.5]dec-7-yl]ethyl}-3-fluorophenyl)carbamoyl]ethyl}carbamate] | 150 |  |
